The source of these data is ChEMBL document CHEMBL3507680, “University of Dundee, Gates Library screen for HepG2 cell viability”.

This series is described as follows: Human HepG2 cell viability assay in 384 well format. It is filed as toxicity, cell-based. Details: dose 125 nL, time 70.5 hour; cytotoxicity at 70.5 h: concentration not given beside the values. To be noted: HepG2 cells, read-out: Inhibition.

In the case of `Cc1nc(-c2nnc[nH]2)sc1C(=O)N1CCCC1c1cccs1` (stereo not drawn), the cytotoxicity at 70.5 h is -6.5%.
The figure for `COC(=O)Cn1ccc(NS(=O)(=O)c2ccc3c(c2)CCC3)n1` is 17%.
Next, `Cc1nc(-c2nnc[nH]2)sc1C(=O)N1CCCC1c1ccsc1` (stereo not drawn): -5.22%; `Cc1nc(-c2nnc[nH]2)sc1C(=O)N1CCCC(C(F)(F)F)C1` (stereo not drawn): -4.51%; `Cc1noc(CCNC(=O)NCc2ccc(N3CCCCC3)cc2)n1`: -5.09%.
The figure for `Cc1noc(CCNC(=O)NCc2ccc(OC3CCCC3)cc2)n1` is 0.994%; for `Cc1nc(-c2nnc[nH]2)sc1C(=O)N1CCCC1Cn1cccn1` (stereo not drawn) it is -3.3%.
Regarding `O=C(Cc1csc(-c2ccoc2)n1)NCCCN1CCCCC1`, the cytotoxicity at 70.5 h was -5.46%.
Next, `O=C(Cc1csc(-c2ccoc2)n1)NCCC(=O)N1CCCCC1`: -2.09%.
Consider `CC(C)c1csc(NC(=O)NC2CCCN(c3cnn(C)c3)C2)n1` (stereo not drawn), for which the cytotoxicity at 70.5 h was -7.46%.
In the case of `O=C(NCCOc1ccc(Cl)cn1)Nc1nccs1`, the cytotoxicity at 70.5 h was 11%.
As for `c1nc(-c2nc(C3CCOC3)no2)cs1` (stereo not drawn), the cytotoxicity at 70.5 h is -1.71%.
Next, `N#Cc1csc(CNCCOc2ccccc2)c1`: 0.519%; `CN1CCN(C(=O)c2cc(C#N)cs2)c2ccccc2C1`: -0.662%.
The figure for `CC1CN(C)c2ccccc2CN1C(=O)c1cc(C#N)cn1C` (stereo not drawn) is 14.8%; for `CN1CCN(C(=O)c2cc(C#N)cn2C)c2ccccc2C1` it is -2.54%.
As for `N#Cc1csc(CNCCOc2ncccc2Cl)c1`, the cytotoxicity at 70.5 h was found to be 8.52%.
Turning to `CCC1CCC(CNC(=O)c2c[nH]c(=O)c(Cl)c2)CC1` (stereo not drawn), the cytotoxicity at 70.5 h is -9.94%.
Regarding `Cc1nc(-c2nnc[nH]2)sc1C(=O)N1CCCC1CC(C)(C)C` (stereo not drawn), the cytotoxicity at 70.5 h is -5.06%.
The figure for `Cc1csc(C(C)(C)NCc2ncc(-c3ccccc3)o2)n1` is -7.99%.
Next, `COCCOCC(=O)NCc1ccc(N(C)C)nc1`: -5.23%; `COCCNC(=O)NC1CCN(c2cnn(C)c2)C1` (stereo not drawn): -4.09%; `Cc1cc(C)cc(CNC(C)c2c(C)nn(C)c2C)c1` (stereo not drawn): -13.1%.
With `COCCSCC(=O)NCc1ccnc(N(C)C)c1`, the cytotoxicity at 70.5 h was -8.31%.
For `Cc1nccn1-c1ccc(C(C)NCCc2ccccn2)cc1` (stereo not drawn), the cytotoxicity at 70.5 h was found to be 0.00833%.
Next, `COc1ccc(S(=O)(=O)C(F)(F)F)cc1NC(=O)CSC`: -1.98%; `COCC(=O)Nc1cc(S(=O)(=O)C(F)(F)F)ccc1OC`: 2.14%.
The figure for `CN(Cc1c(F)cccc1Cl)C(=O)Nc1cnn(CC(N)=O)c1` is 6.9%; for `O=C(Cc1ccc(F)cc1)NS(=O)(=O)c1ccc(F)c(F)c1` it is -2.89%.
The figure for `COc1ccc(NCc2c[nH]nc2-c2cccnc2)cc1` is 8.67%; for `COc1ccsc1C(=O)NCCNc1ccccc1` it is -2.66%; for `COc1cc(C)sc1C(=O)NCCNc1ccccc1` it is 11.2%.
For the compound `Cc1cccc(CC(=O)NS(=O)(=O)c2ccc(F)c(F)c2)c1`, the cytotoxicity at 70.5 h was 8.16%.
Next, `Cc1nccn1-c1ccc(C(C)NCc2cccn2C)cc1` (stereo not drawn): -4.2%; `O=C1CCC(=O)N1CCN1CCN(c2cc(F)ccc2F)CC1`: -3.59%.
Turning to `CCCS(=O)(=O)CCN1CCN(c2cc(F)ccc2F)CC1`, the cytotoxicity at 70.5 h is 2.83%.
On to `Cn1cc(C#N)cc1C(=O)Nc1ccc(CN2CCOCC2)cn1`, for which the cytotoxicity at 70.5 h was -2.71%.
Next, `Cn1cc(C(=O)Nc2ccc(CN3CCOCC3)cn2)cn1`: -4.82%; `COc1cccc(CCCNC(=O)N2CCC(O)(C(F)(F)F)C2)c1` (stereo not drawn): -2.72%; `c1csc(CCNC2CCc3ncnn3C2)c1` (stereo not drawn): 0.839%.
As for `COc1cccc(CC(=O)N2CCC(O)(C(F)(F)F)C2)c1` (stereo not drawn), the cytotoxicity at 70.5 h was -4.06%.
Next, `Cc1csc(CN(C)C(C)C(=O)N2CCc3ccccc3C2)n1` (stereo not drawn): 11.5%; `O=C(CN1CCCC1c1nc(Cc2ccc(F)cc2)no1)NC1CC1` (stereo not drawn): 0.125%; `O=C(CNC1CCc2ncnn2C1)N(Cc1cccs1)C1CC1` (stereo not drawn): 0.341%.
The figure for `c1ccc(-n2cncn2)c(CNCCn2cccn2)c1` is 10.2%; for `COCCCSc1ccc(NCc2scnc2C)cc1` it is -0.225%; for `CC(C)(CNC(=O)C1CCCCN1S(C)(=O)=O)N1CCOCC1` (stereo not drawn) it is 38%.
`O=c1c2sccc2ncn1CC(O)CN1CCOCC1` (stereo not drawn): the cytotoxicity at 70.5 h was -10.3%.
In the case of `CC(C)c1ccc(OCCNC(=O)c2ccoc2)cc1`, the cytotoxicity at 70.5 h worked out at 23.9%.
Next, `CC(C)c1noc(CNc2cccc(-c3nnnn3C)c2)n1`: -8.75%.
The figure for `CCC(=O)N1CCN(c2ccc(C(=O)OC)cc2)CC1C` (stereo not drawn) is -0.474%.
The figure for `COCCNC(=O)CCNC(=O)c1ccc(N2CCC(C)=N2)cc1` is -16%.
With `Cc1cc(CN2CCN(C(=O)C3(C#N)CCCC3)CC2)on1`, the cytotoxicity at 70.5 h was 21%.
Next, `CC1=NN(c2ccc(C(=O)OCCNC(=O)c3ccncc3)cc2)CC1`: -2.48%; `CC(NS(C)(=O)=O)c1nc(-c2ccc(Br)cc2)no1` (stereo not drawn): -5.32%; `CCC(C)(CNC(=O)c1ccon1)NC(=O)c1ccon1` (stereo not drawn): -8.49%.
As for `Cc1cc(NC(=O)N2CCCC2CN2CCOCC2)nn1C` (stereo not drawn), the cytotoxicity at 70.5 h is -10.1%.
Next, `N#Cc1ccc(C(=O)O)nc1/C=C/c1cccc(F)c1`: -7.55%; `N#Cc1ccc(C(=O)O)nc1/C=C/c1cccc(Br)c1`: -4.7%.
Next, `CCN(CC)c1ncc(CNC2CCc3ncnn3C2)s1` (stereo not drawn): -5.42%; `O=C(Nc1nnc(C(F)F)s1)NC(CCO)c1cccs1` (stereo not drawn): 32.8%; `Cc1ccc(C(=O)Nc2ccc(N(C)C)nc2)n1C`: 3.75%.
For the compound `N#Cc1cccc(OCCN2CCCC2C(=O)NC2CC2)c1` (stereo not drawn), the cytotoxicity at 70.5 h came to 4.05%.
Next, `Cc1cc(C)n(-c2ccccc2NC(=O)NCCCN(C)S(C)(=O)=O)n1`: 5.58%.
Next, `N#Cc1ccc(CN2C(=O)c3ccccc3CS2(=O)=O)cc1`: -1.6%; `O=C(NCc1cc2ccccc2[nH]1)C1CCCN(C(=O)N2CCCC2)C1` (stereo not drawn): -3.92%.
The figure for `CCc1nc2n(n1)CC(Nc1ccnc(-c3ccccc3)n1)CC2` (stereo not drawn) is -3.97%.
Take `Cc1nc2n(n1)CC(Nc1nc(-c3ccccc3)no1)CC2` (stereo not drawn): the cytotoxicity at 70.5 h is -0.185%.
The figure for `CC(C(=O)Nc1nccs1)N1CCc2nn(C)c(=O)cc2C1` (stereo not drawn) is 20.7%; for `CCn1ncc2c1CCCC2NCc1ccc2c(c1)OCCO2` (stereo not drawn) it is 4.09%.
For `CC(C)(C)n1ncc2c1CCCC2NCc1cccc(C(N)=O)c1` (stereo not drawn), the cytotoxicity at 70.5 h was 3.6%.
Consider `CC(C)(C)n1ncc2c1CCCC2NCc1ccc2c(c1)OCCO2` (stereo not drawn), for which the cytotoxicity at 70.5 h came out at 29.2%.
Next, `CC(C)(C)OC(=O)N1CCC(C(=O)NCc2cc3ccccc3[nH]2)C1` (stereo not drawn): -2.83%; `Fc1ccc2c(C3=CCN(Cc4nnc(C5CCC5)o4)CC3)c[nH]c2c1`: 2.23%.
Take `COc1ccc(C)cc1C(=O)NC1(C#N)CCOCC1`: the cytotoxicity at 70.5 h is -2.79%.
The figure for `Cc1noc(CN(Cc2cccc(C#N)c2)Cc2ccco2)n1` is 0.0593%; for `Cc1nc(C(=O)N(C)CC2CC2)nn1-c1ccccc1C(C)C` it is 36%; for `CC(O)(CNS(=O)(=O)Cc1ccon1)c1ccsc1` (stereo not drawn) it is 0.988%.
The figure for `CCN(C)S(=O)(=O)NCC(C)(O)c1ccsc1` (stereo not drawn) is -0.398%; for `CC(C)(C)n1ncc2c1CCCC2NCc1ccc2ncccc2c1` (stereo not drawn) it is -4.24%; for `CC(C)(C)c1noc(CCC(=O)N2CCN(Cc3ccco3)CC2)n1` it is -0.998%.
Turning to `COC(=O)CCNC(=O)c1cccc(C(=O)N(C)c2ccccc2)c1`, the cytotoxicity at 70.5 h amounted to 31.4%.
The figure for `Cc1nc(CNC2CCCN(c3cccnn3)C2)no1` (stereo not drawn) is 22%; for `COC(=O)CNC(=O)c1cccc(C(=O)N(C)c2ccccc2)c1` it is 30.5%; for `c1cncc(-c2noc(CNC3CCCN(c4cccnn4)C3)n2)c1` (stereo not drawn) it is 24.9%.
Next, `OC1CCCN(Cc2ccc(F)c3cccnc23)C1` (stereo not drawn): -0.871%.
Take `CC(C)(C)c1ccc(C2(C(=O)NCCS(C)(=O)=O)CC2)cc1`: the cytotoxicity at 70.5 h is -6.58%.
Take `Cc1nc2c(c(C)c1CC(=O)NC(C)c1ccccc1)c(=O)[nH]n2C` (stereo not drawn): the cytotoxicity at 70.5 h was -2.23%.
Take `Cc1cc(CNC(=O)Nc2cccc(COCCOC(C)C)c2)no1`: the cytotoxicity at 70.5 h was -0.772%.
`Cc1ccc(-c2ccc(C(=O)NCCS(N)(=O)=O)c(F)c2)cc1`: the cytotoxicity at 70.5 h is -3.69%.
Next, `Cc1ccc(CN(C)C(=O)CN2CCCCC2Cn2cncn2)cc1` (stereo not drawn): 22.7%; `Cc1cc(CNC(=O)NC(C)c2ccccc2)no1` (stereo not drawn): 0.144%; `Cc1ccc(-c2ccc(C(=O)NCCC(=O)N(C)C)c(F)c2)cc1`: -6.22%.
Next, `CCc1nc(CN2CCCN(c3ncnc4sccc34)CC2)no1`: 16.3%.
For the compound `CCCNC(=O)CNc1ccc2c(c1)N(C(=O)OC(C)(C)C)CCC2`, the cytotoxicity at 70.5 h turned out to be 2.81%.
As for `CN(Cc1cccs1)C(=O)CN1CCCCC1Cn1cncn1` (stereo not drawn), the cytotoxicity at 70.5 h was determined as 23.2%.
Next, `CNc1nc(CNC(=O)Nc2cccc(COCCOC(C)C)c2)cs1`: 2.29%; `Cc1ncccc1C(=O)NC1(c2cccc(F)c2)CCOCC1`: -3.77%; `CC(C)C1CN(C(=O)c2ccc3nccnc3c2)CCS1` (stereo not drawn): -7.38%.
Consider `CC(C)OCCOCc1cccc(NC(=O)NCc2cnn(C)c2)c1`, for which the cytotoxicity at 70.5 h is -0.106%.
The figure for `Cc1ccccc1CN(C)C(=O)CN1CCCCC1Cn1cncn1` (stereo not drawn) is -7.31%.
Next, `COc1cc(NC(=O)c2ccc(F)cc2Cl)c(C(=O)N(C)C)cc1OC`: -8.85%.
In the case of `CC1CCN(CCCNS(=O)(=O)c2cc(F)cc(F)c2)CC1`, the cytotoxicity at 70.5 h is 48.4%.
